# Experimental data published in patent US8354570B2, “Disease resistant plants” (Enza Zaden Beheer B.V., priority 2005, dated 2013).
# Entries after “also recorded” stand apart in the source; their conditions may differ.
# Columns and labels:
# [1] = tested on: H. parasitica isolates Cala2 and Waco9; test: Conidiophore counting on H. parasitica-inoculated Arabidopsis seedlings infiltrated with homoserine; format: in vivo, Hyaloperonospora parasitica
# Description: The inoculated seedlings were infiltrated with dH2O, D-homoserine (5 mM) or L-homoserine (5 mM) at 3 days post inoculation with the pathogen.
# (§1) To test if the effect is specific for homoserine the stereo-isomer D-homoserine was tested. Whole seedlings were infiltrated with water, 5 mM D-homoserine and 5 mM L-homoserine. […] The infiltration was applied to two Arabidopsis accessions, Ler eds1-2 and Ws eds1-1, susceptible to Cala2 and Waco9, respectively. Conidiophore formation was determined as an indicator for H. parsitica susceptibility. Conidiophores were counted 5 days post inoculation with H. parasitica and 2 days post infiltration with water, D-homoserine or L-homoserine. (FIG. 6). […] This was further confirmed by studying pathogen growth in planta by trypan blue staining of Arabidopsis seedlings. Plants were inoculated with isolate Cala2. Two days later the plants were treated by infiltration with water, 5 mM D-homoserine, and 5 mM L-homoserine.
# [2] = tested on: H. parasitica isolate Cala2; test: Microscopy of trypan blue stained seedlings: growth and development of H. parasitica in planta; format: in vivo, Hyaloperonospora parasitica; conditions: for haustorial development: 5 mM infiltration, microscopy, 40x magnification, FIG. 7b
# Description: as §1
# Again it is shown that increased levels of homoserine in planta lead to pathogen resistance.
# [3] = 5 mM infiltration of whole Arabidopsis seedlings
Compound,"pathogen growth [1, 3]","resistance / susceptibility to H. parasitica [1, 3]",haustorial development [2],"conidiophore formation (number of conidiophores per seedling) ([1]; 5 mM infiltration of whole seedlings, counted 5 days post inoculation, 2 days post infiltration, Ler eds1-2 (Cala2) and Ws eds1-1 (Waco9), FIG. 6)","pathogen growth in planta (trypan blue staining) ([2]; 5 mM infiltration two days after inoculation with Cala2, scored 5 days post inoculation, FIG. 7)","conidiophore formation (microscopy) ([2]; 5 mM infiltration two days after inoculation with Cala2, scored 5 days post inoculation, Ler eds1-2 seedlings, trypan blue, FIG. 7)"
"N[C@H](CCO)C(=O)O [D-homoserine, reference compound]",did not show a large reduction in pathogen growth,susceptible to H. parasitica,not,,,
N[C@@H](CCO)C(=O)O [L-homoserine],,resistant; also recorded: resulted in resistance to H. parasitica,affected; also recorded: disturbed,complete absence of conidiophore formation; also recorded: reduction of conidiophore formation,strongly reduced pathogen growth,No conidiophore formation was detected
